Our source for the CC50, IC50 and EC50 values is ChEMBL document CHEMBL1201862, “PubChem BioAssay data set” (2004).

Experiment [1] relates to Vero. Nature of the experiment: mammalian cell viability reduction – secondary assay, cytotoxicity control for West Nile virus antiviral project, dose response (AID 1650). It counts as functional. As to conditions: Chlorocebus sabaeus.
For experiment [2], the system named is Vero. Nature of the experiment: inhibition of WNV-induced cytopathic effect – cell-based, CPE readout (AID 1621). Format: functional. Conditions: Chlorocebus sabaeus. In general terms: Protection from cytopathic effect is a common read-out in antiviral testing.
For experiment [3], the target named is Solute carrier family 12 member 2/member 5 (Homo sapiens, UniProt P55011+Q9H2X9). Description: KCC2 and NKCC1 inhibition by rubidium flux, cell-based, NKCC1 counter-screen (AID 1734). It counts as functional, HEK293. Background: A counterscreen serves to expose hits that act by an unwanted route or on another target.
The target of experiment [4] is Peroxisome proliferator-activated receptor gamma/Nuclear receptor coactivator 2 (Homo sapiens, UniProt P37231). Format: functional.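 Further: agonist potency for raising coactivator recruitment to the receptor.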
In the next experiment the target is Genome polyprotein (Hepatitis C virus, UniProt Q2Q167). Nature of the experiment: disruption of hepatitis C core self-association – biochemical, TR-FRET, dose response (AID 2159).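 Further: blocks dimerization of HCV core protein measured by TR-FRET between tagged core106 pairs.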 Details: species or system Hepacivirus hominis.
Experiment [5] addresses Peroxisome proliferator-activated receptor gamma/Nuclear receptor coactivator 1 (Homo sapiens, UniProt P37231). Format: functional.
For experiment [6], the target named is Peroxisome proliferator-activated receptor gamma/Nuclear receptor coactivator 3 (Homo sapiens, UniProt P37231). It counts as functional.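 Further: agonist potency for raising coactivator recruitment to the receptor.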
Chain of Peroxisome proliferator-activated receptor gamma/Nuclear receptor coactivator 3 (P37231 whole entry): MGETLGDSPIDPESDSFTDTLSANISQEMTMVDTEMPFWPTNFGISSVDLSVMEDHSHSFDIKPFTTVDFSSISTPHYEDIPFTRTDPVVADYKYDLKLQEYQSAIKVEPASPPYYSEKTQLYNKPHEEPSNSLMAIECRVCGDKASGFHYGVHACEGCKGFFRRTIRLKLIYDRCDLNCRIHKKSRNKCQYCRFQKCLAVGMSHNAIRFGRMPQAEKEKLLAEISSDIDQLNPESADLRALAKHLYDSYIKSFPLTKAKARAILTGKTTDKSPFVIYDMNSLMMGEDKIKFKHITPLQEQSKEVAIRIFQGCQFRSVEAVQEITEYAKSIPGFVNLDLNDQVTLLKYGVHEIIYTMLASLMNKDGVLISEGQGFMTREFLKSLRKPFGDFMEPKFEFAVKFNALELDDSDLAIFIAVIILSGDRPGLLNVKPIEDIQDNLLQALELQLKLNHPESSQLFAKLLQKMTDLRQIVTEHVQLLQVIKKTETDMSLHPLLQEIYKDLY
Chain of Peroxisome proliferator-activated receptor gamma/Nuclear receptor coactivator 3 (Q9Y6Q9 whole entry, further chain): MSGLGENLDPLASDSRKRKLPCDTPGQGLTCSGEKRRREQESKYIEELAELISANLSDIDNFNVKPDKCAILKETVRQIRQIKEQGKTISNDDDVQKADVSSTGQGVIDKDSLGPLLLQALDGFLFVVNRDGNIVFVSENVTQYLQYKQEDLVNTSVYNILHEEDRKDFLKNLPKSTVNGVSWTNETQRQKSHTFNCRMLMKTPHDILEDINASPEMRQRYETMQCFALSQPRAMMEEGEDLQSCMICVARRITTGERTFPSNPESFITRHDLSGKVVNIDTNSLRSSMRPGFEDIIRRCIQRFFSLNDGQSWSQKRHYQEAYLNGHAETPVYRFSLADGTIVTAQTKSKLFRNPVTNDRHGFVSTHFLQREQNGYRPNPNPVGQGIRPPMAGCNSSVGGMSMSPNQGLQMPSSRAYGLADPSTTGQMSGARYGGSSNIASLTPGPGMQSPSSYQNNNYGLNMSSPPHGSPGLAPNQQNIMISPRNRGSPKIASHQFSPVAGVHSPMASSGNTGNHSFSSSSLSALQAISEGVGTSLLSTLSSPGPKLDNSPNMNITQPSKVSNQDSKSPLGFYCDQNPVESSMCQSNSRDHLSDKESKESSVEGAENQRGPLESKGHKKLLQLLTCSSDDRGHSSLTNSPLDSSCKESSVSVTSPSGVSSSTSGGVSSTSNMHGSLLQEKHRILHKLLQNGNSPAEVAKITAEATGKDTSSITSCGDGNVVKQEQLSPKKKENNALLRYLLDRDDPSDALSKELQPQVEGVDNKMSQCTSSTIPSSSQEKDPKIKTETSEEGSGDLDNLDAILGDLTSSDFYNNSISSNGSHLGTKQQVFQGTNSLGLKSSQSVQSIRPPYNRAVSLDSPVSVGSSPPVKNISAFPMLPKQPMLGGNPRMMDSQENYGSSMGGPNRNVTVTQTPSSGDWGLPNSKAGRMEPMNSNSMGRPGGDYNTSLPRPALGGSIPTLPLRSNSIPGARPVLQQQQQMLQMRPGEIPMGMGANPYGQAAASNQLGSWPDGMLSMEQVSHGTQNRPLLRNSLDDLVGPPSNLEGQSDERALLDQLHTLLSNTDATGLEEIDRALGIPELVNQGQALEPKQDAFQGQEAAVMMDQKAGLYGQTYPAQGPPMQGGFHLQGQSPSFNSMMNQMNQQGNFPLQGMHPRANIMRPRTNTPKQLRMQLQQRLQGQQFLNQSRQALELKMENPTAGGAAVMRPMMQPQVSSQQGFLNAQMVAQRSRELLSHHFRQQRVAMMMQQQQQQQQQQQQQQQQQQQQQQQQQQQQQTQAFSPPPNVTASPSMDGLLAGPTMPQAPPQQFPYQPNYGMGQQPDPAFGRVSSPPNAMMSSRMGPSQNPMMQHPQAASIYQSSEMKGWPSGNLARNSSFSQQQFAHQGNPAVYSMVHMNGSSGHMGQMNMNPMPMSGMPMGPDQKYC
Experiment [7] can be described thus: Trypanosoma cruzi growth suppression in host cells – NIH3T3 host cells, beta-gal luminescence, confirmation (AID 2044).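 Further: intracellular parasites grown in NIH/3T3 mouse fibroblasts as host cells; luminescent beta-galactosidase reporter signal from transgenic T. cruzi replicating inside host cells; inhibitors lower the luminescence signal.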 It counts as functional, cell-based.
The target in experiment [8] is T1, NADPH oxidase 1 (Homo sapiens, UniProt Q9Y5S8). It counts as functional, cell-based.
T1 sequence (Q9Y5S8 whole entry): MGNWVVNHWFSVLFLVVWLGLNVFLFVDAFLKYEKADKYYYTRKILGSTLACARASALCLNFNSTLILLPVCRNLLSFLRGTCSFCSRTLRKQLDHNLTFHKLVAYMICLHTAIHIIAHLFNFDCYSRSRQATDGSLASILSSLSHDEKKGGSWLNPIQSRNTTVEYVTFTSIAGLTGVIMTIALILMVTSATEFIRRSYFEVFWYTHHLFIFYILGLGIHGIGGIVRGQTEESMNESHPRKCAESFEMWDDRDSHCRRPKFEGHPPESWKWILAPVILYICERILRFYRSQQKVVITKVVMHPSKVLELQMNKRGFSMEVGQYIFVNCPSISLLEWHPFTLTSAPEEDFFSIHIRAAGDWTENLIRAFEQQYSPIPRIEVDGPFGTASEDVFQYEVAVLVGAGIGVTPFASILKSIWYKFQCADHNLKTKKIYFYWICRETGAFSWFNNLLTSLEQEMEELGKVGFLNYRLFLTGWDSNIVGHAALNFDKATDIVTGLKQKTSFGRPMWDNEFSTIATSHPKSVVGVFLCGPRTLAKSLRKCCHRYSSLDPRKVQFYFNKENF
Experiment [9] deals with T1, NADPH oxidase 1. Description: Luminescence-based cell-based dose response assay to identify inhibitors of NADPH oxidase 1 (NOX1). It counts as functional.
Experiment [10] in a line: NIH3T3 cell viability loss – ATP luminescence, mouse fibroblasts, counter-screen, dose response (AID 2010).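 Further: cells exposed to compound for about 90 hours before reading.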 It counts as functional, cell-based.
For experiment [11], the target named is T2, Rac GTPase-activating protein 1 (Homo sapiens, UniProt Q9H0H5).
T2 sequence (Q9H0H5 whole entry): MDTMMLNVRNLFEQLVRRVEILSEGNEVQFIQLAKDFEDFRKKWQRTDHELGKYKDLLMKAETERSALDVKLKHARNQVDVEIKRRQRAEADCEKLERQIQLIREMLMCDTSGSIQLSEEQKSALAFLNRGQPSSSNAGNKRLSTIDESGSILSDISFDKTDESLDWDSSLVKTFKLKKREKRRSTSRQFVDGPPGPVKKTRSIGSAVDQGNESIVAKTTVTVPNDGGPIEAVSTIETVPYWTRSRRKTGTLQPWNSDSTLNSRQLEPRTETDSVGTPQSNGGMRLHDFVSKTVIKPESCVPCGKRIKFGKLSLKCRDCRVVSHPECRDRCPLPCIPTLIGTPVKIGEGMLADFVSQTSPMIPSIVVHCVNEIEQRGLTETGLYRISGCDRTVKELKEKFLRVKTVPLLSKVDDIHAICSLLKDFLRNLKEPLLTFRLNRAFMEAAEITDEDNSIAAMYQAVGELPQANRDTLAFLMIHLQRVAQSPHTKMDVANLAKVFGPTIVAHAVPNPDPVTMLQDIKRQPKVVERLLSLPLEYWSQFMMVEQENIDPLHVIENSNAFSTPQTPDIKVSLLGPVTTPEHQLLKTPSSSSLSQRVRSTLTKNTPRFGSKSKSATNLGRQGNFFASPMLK
Nature of the experiment: blockers of MgcRacGAP-driven Rac1 GTP hydrolysis – biochemical, ADP Hunter fluorescence, primary and confirmatory, confirmation (AID 624330). Format: functional.

Experiment [12] concerns the target Neuropeptide Y receptor type 1 (Homo sapiens, UniProt P25929). It counts as functional.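 Further: HEK293 cells with a CNG channel challenged with NPY then isoproterenol; potency as antagonist that reverses NPY suppression of cAMP signal.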
Experiment [13] has as its target Neuropeptide Y receptor type 2 (Homo sapiens, UniProt P49146). It counts as functional, cell-based.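 Further: HEK293 cells expressing the receptor and a CNG channel; stimulus was NPY near EC95 followed by isoproterenol to raise cAMP; antagonist potency measured as restoring cAMP signal that NPY suppresses.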
A further experiment deals with SUMO-activating enzyme (Homo sapiens, UniProt Q9UBT2). Description: blockers of UBC9-mediated SUMO conjugation – biochemical, AlphaScreen, SUMOylation inhibitor project, confirmation (AID 2018). It counts as functional.
Chain of SUMO-activating enzyme (Q9UBE0 whole entry): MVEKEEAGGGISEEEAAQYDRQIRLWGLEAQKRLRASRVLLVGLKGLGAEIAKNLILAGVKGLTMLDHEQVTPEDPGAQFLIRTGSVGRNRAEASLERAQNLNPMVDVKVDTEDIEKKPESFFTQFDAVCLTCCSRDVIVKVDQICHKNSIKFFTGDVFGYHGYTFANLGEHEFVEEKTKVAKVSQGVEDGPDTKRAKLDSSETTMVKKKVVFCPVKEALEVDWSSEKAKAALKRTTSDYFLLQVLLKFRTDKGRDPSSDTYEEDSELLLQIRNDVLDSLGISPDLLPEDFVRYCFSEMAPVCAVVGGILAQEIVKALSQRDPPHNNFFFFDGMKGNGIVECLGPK
Chain of SUMO-activating enzyme (Q9UBT2 whole entry): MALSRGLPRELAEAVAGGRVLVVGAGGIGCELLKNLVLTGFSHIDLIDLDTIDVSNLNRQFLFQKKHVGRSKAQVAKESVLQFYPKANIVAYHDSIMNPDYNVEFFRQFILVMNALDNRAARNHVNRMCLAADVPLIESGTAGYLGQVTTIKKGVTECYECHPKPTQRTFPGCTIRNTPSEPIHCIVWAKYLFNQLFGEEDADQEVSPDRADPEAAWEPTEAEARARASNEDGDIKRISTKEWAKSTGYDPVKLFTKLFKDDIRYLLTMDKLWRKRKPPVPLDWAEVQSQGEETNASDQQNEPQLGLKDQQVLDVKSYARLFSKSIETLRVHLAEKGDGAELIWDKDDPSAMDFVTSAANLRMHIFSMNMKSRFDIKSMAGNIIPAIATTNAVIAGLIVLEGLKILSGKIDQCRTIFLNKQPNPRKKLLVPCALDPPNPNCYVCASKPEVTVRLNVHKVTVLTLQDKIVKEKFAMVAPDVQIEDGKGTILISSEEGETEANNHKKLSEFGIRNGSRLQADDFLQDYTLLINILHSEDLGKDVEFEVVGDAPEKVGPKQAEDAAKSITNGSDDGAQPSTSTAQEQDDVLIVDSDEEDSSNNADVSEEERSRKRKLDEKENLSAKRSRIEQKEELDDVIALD
The target in experiment [14] is ATP-sensitive inward rectifier potassium channel 1 (Homo sapiens, UniProt P48048). Nature of the experiment: Kir1.1 channel inhibitor analog potency – cell-based, thallium flux, analog library, SAR follow-up (AID 435017). It counts as functional.
Chain of ATP-sensitive inward rectifier potassium channel 1 (P48048 whole entry): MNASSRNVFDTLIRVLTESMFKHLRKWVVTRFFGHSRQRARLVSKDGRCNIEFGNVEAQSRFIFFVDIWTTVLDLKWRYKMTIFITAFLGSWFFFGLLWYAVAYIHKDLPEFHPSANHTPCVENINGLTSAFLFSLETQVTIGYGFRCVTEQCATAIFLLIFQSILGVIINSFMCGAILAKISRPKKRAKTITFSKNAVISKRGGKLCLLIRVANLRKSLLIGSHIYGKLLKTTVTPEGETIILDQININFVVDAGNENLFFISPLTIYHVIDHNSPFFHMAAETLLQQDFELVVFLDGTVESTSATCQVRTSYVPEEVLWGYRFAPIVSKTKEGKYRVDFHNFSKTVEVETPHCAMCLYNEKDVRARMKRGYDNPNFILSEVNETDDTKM
Experiment [15] addresses 5-hydroxytryptamine receptor 1E (Homo sapiens, UniProt P28566). Nature of the experiment: Counterscreen assay for S1P3 antagonists: Dose response cell-based high throughput screening assay to identify antagonists of the 5-Hydroxytryptamine Receptor Subtype 1E (5HT1E). [Related pubchem assays: 1429, 485 ]. It counts as functional.
Experiment [16] addresses Sphingosine 1-phosphate receptor 3 (Homo sapiens, UniProt Q99500). Nature of the experiment: Dose response cell-based high throughput screening assay for antagonists of the Sphingosine 1-Phosphate Receptor 3 (S1P3). [Related pubchem assays: 1429, 485 ]. Format: functional.
Experiment [17] has as its target Disintegrin and metalloproteinase domain-containing protein 17 (Homo sapiens, UniProt P78536). Nature of the experiment: exosite inhibitors of ADAM17, dose response, biochemical (AID 743260).
Experiment [18] is described as follows: inhibition of ADAM10 peptide cleavage – biochemical, FRET peptide substrate, recombinant human ADAM10, selectivity assay for ADAM17 exosite inhibitor project, dose response (AID 743259).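 Further: ADAM10 enzyme cleaving a FRET peptide substrate.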

A word on the CC50: it is the concentration giving 50% cytotoxicity. For orientation: IC50 means the concentration that inhibits the measured activity by half. What is called EC50 is the concentration that produces a half-maximal response.

Structures are written as SMILES. Active and inactive are the calls of the source.

Chain of Sphingosine 1-phosphate receptor 3 (Q99500 whole entry, the tested form may be a part): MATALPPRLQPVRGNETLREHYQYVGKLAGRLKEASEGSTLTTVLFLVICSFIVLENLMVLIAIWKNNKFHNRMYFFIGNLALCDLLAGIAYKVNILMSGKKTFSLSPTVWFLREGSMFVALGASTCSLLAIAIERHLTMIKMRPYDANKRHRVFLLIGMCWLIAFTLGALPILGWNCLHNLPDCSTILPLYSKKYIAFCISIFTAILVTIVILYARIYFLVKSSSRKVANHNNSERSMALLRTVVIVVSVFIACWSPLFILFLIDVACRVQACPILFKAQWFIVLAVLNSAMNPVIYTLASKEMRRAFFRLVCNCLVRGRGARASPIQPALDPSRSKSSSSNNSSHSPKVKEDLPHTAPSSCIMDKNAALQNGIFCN
Chain of Neuropeptide Y receptor type 1 (P25929 whole entry): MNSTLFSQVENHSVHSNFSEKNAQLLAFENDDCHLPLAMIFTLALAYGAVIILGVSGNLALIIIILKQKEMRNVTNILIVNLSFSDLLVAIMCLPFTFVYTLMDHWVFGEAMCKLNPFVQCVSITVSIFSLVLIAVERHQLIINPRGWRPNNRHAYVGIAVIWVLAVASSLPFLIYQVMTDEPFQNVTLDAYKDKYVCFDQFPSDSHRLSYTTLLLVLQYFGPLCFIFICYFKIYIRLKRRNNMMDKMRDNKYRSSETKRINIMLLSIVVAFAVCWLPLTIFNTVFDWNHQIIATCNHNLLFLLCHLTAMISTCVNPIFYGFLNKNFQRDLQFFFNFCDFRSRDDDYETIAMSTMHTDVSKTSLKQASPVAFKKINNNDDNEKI
Chain of Neuropeptide Y receptor type 2 (P49146 whole entry): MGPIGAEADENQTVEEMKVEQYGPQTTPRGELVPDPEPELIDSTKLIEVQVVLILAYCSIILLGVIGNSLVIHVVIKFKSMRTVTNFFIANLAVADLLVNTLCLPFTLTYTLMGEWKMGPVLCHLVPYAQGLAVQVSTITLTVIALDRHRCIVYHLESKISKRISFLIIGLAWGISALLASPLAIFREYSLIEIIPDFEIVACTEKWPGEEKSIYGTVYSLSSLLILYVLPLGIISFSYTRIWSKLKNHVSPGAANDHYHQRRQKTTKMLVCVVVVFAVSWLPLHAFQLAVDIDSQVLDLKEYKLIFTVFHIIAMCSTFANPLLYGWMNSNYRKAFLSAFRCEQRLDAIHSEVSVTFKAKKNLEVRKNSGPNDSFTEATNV

As to `CCC1CCCCN1CCCNC(=O)c1cc2c(Cl)nc3ccccc3c2s1` (stereo not given), the CC50 with Vero [1] was 12.7 µM (active). Further, the IC50 with Vero [2] was 8.75 µM (active).

For `O=C(Cn1cnc2c(nnn2Cc2ccccc2)c1=O)c1ccc(Cl)cc1`, the IC50 in [3] is 1.2 µM (active).

As for `Cc1cc(OCC(=O)Nc2cc(-c3nn4c(C)nnc4s3)ccc2C)ccc1Cl`, the concentration giving a half-maximal response (EC50) was 10.1 µM (not active) in [4], 9.05 µM (active) in experiment [5] and 8.97 µM (active) in [6]. Moreover, the IC50 against Genome polyprotein is > 49.8 µM (not active).

As for `CCOC(=O)Nc1ccc2c(c1)Nc1ccccc1S2`, the EC50 in experiment [7] was < 0.1 µM (active); in experiment [10], > 60 µM (not active). The IC50 on NADPH oxidase 1 [8] was 0.915 µM (active); on NADPH oxidase 1 [9], 0.054 µM (active); in [11], 45 µM (active).

`COc1cccc(-c2nc(-c3ccc(NC(=O)Cc4ccccc4OC)cc3)no2)c1`: the IC50 is > 35 µM (not active) in [12] and 0.733 µM (active) in experiment [13].

Take `O=[N+]([O-])c1ccc2[nH]c(CCCc3nc4cc([N+](=O)[O-])ccc4[nH]3)nc2c1`: the IC50 on SUMO-activating enzyme is > 100 µM (inactive); in [14] it was 6.53 µM (active).

In the case of `COc1ccc(C(CC(=O)c2ccc(C)cc2)Nc2ccc([N+](=O)[O-])cc2)cc1` (stereo not given), the IC50 in experiment [15] was > 50 µM (not active); in [16], 2.05 µM (active); in experiment [17], > 69.5 µM (inactive); in experiment [18], 26.8 µM (inactive).
